Data on 13 compounds can be found in patent publication US8119614B2, “Substitution derivatives of N6-benzyladenosine, methods of their preparation, their use for preparation of drugs, cosmetic preparations and growth regulators, pharmaceutical preparations, cosmetic preparations and growth regulators containing these compounds” (Ustav Experimentalni Botaniky Akademie Ved Ceske Republiky, priority 2002, dated 2012).

Assay [1] deals with human diploid fibroblasts (HCA cells). Kind of assay: Inhibition of senescence of mammal cells: β-galactosidase staining of senescent cells. Format: cell-based. Particulars: for Senescent cells (%) HCA25: passage 25; for Senescent cells (%) HCA45: passage 45; for Senescent cells (%) HCA80: passage 80. The procedure: In this example, human diploid fibroblasts (HCA cells with different levels of passage: passage 25—labelling HCA25; passage 45—labelling HCA45; passage 80—labelling HCA80) were used for studying β-galactosidase activity. Medium used for cells cultivation was removed, cells were washed twice with PBS and fixed in 2-3 ml of fixation agent consisting of 2% of formaldehyde and 0.2% of flutaraldehyde in PBS. Cells were incubated at room temperature for 5 min and subsequently washed twice with PBS. Cells were then incubated at 37° C. (without CO2) for 1 to 16 hours in 2-3 ml of solution comprising potassium ferricyanide (5 mM), potassium ferrocyanide (5 mM), MgCl2 (2 mM), X-gal (5-bromo-4-chloro-3-indolyl-β-D-galactopyranoside) (1 mg/ml) in citrate/phosphate buffer, pH 6.0. […] In this experiment only senescent cells were labelled due to the effect of β-galactosidase on the substrate.

Assay [2] concerns HOS. Kind of assay: In vitro cytotoxic activity, Calcein AM assay, HOS. In kind it is cell-based. The note with it: 72 hours.
The subject of assay [3] is human erythroleukaemia K562. Description: In vitro cytotoxic activity, Calcein AM assay, K-562. Format: cell-based. The note with it: 72 hours, read-out: IC 50 K-562. The procedure, abridged: (§1)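 Read-out: Calcein AM fluorescence of viable cells, 1 h after dye addition, expressed relative to mean control wells. Compounds were applied for 72 h in DMEM/10% FCS at six 4-fold dilutions, highest usually 166.7 μM; GI50 derived from dose-response curves.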

In assay [4] the test system is breast carcinoma cell lines MCF-7. Kind of assay: In vitro cytotoxic activity, Calcein AM assay, MCF7. In kind it is cell-based, human. Particulars: 72 hours, read-out: IC 50 MCF7. The gist of the method: as §1
For assay [5], the system named is mouse fibroblasts NIH3T3. Description: In vitro cytotoxic activity, Calcein AM assay, NIH-3T3. Format: cell-based. The note with it: 72 hours, read-out: IC 50 NIH-3T3. The procedure, abridged:
as §1

Assay [6] concerns Human T-lymphoblastic leukemia cell line CEM. Kind of assay: In vitro cytotoxic activity, Calcein AM assay, CEM. In kind it is cell-based. Particulars: 72 hours. The procedure, abridged: as §1
Assay [7] concerns promyelocytic HL-60. Description: In vitro cytotoxic activity, Calcein AM assay, HL60. The note with it: 72 hours, read-out: IC 50 HL60. In kind it is cell-based, human. The procedure, abridged:
as §1

For assay [8], the system named is Triticum aestivum cv. Hereward. Description: Senescence inhibition on winter wheat leaf segments (chlorophyll retention). Format: in vivo. Particulars: for Concentration with highest activity: chlorophyll retention in excised wheat leaf tips, 96 h dark; for Activity (%) [10^−4 mol · l^−1 BAP = 100%]: chlorophyll retention, at concentration with highest activity. The procedure, abridged: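 Tip segments of the first leaf from 7-day wheat seedlings held, basal ends down, in cytokinin solutions (10^−8M to 10^−4M) for 96 h at 25° C in darkness. Chlorophyll extracted in 80% ethanol at 80° C, read at 665 nm; activity at best concentration given relative to 10^−4 M BAP (100%), means of five replicates.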

Assay [9] has as its system tobacco callus Nicotiana tabacum L. cv. Wisconsin 38. Description: Growth of cytokinin-dependent tobacco callus. Particulars: for Activity (%) [10^−5 mol · l^−1 BAP = 100%]: callus growth, at concentration with highest activity; for Concentration with highest activity: fresh callus weight after four weeks. In kind it is cell-based.
The subject of assay [10] is Amaranthus caudatus cotyledon/hypocotyl explants. Description: Amaranthus bioassay (betacyanin content). The note with it: for Concentration with highest activity: 48 h dark; for Activity (%) [10^−5 mol · l^−1 BAP = 100%]: at concentration with highest activity. Format: in vivo. The procedure, abridged: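 Surface-sterilised Amaranthus caudatus var. atropurpurea seeds were germinated 72 h at 25° C. in darkness, then de-rooted. Cotyledon/hypocotyl explants (20 per dish) were incubated under green safe light on filter paper with 1 ml medium of 10 μmol NA2HPO4-KH2PO4, pH 6.8, 5 μmol tyrosine and cytokinin (10^-8M to 10^-4M) for 48 h at 25° C. in darkness. Betacyanin was extracted in […] acetic acid and measured by absorbance at 537 nm and 620 nm.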

For assay [11], the system named is human malignant melanoma cells G361. Kind of assay: In vitro cytotoxic activity, Calcein AM assay, G-361. The note with it: 72 hours, read-out: IC 50 G-361. Format: cell-based. From the text:
One of the parameters used, as the basis for cytotoxicity assays, is the metabolic activity of viable cells. For example, a microtiter assay, which uses the Calcein AM, is now widely used to quantitate cell proliferation and cytotoxicity. For instance, this assay is used in drug screening programs and in chemosensitivity testing. Because only metabolically active cells cleave Calcein AM, these assays detect viable cells exclusively. The quantity of reduced Calcein AM corresponds to the number of vital cells in the culture.
Human T-lymphoblastic leukemia cell line CEM; promyelocytic HL-60 and monocytic U937 leukemias; breast carcinoma cell lines MCF-7; cervical carcinoma cells HELA; mouse fibroblasts NIH3T3; human erythroleukaemia K562 and human malignant melanoma cells G361 were used for routine screening of compounds. The cells were maintained in Nunc/Corning 80 cm^2 plastic tissue culture flasks and cultured in cell culture medium (DMEM with 5 g/l glucose, 2 mM glutamine, 100 U/ml penicillin, 100 μg/ml streptomycin, 10% fetal calf serum and sodium bicarbonate).
The cell suspensions that were prepared and diluted according to the particular cell type and the expected target cell density (10^4 cells per well based on cell growth characteristics) were added by pipette (80 μl) into 96/well microtiter plates. Inoculates were allowed a pre-incubation period of 24 hours at 37° C. and 5% CO2 for stabilisation. Four-fold dilutions of the intended test concentration were added at time zero in 20 μl aliquots to the microtiter plate wells. Usually, test compound was evaluated at six 4-fold dilutions. In routine testing, the highest well concentration was 166.7 μM, but it can be the matter of change dependent on the agent. All drug concentrations were examined in duplicates. Incubations of cells with the test compounds lasted for 72 hours at 37° C., in 5% CO2 atmosphere and 100% humidity. At the end of incubation period, the cells were assayed by using the Calcein AM. Ten microliters of the stock solution were pipetted into each well and incubated further for 1 hours. Fluorescence (FD) was measured with the Labsystem FIA Reader Fluoroscan Ascent (UK). The tumour cell survival (GI50) was calculated using the following equitation: GI50=(FDdrug exposed well/mean FDcontrol wells)×100%. The GI50 value, the drug concentration lethal to 50% of the tumour cells, was calculated from the obtained dose response curves (FIG. 3).

Regarding `c1coc(CNc2ncnc3[nH]cnc23)c1` [Kinetin, reference compound], in assay [1], the “Senescent cells (%) HCA25” value stood at 3%, the “Senescent cells (%) HCA45” value is listed as 5% and the “Senescent cells (%) HCA80” value is given as 25%.
In the case of `COc1cccc(CNc2ncnc3c2ncn3[C@@H]2O[C@H](CO)[C@@H](O)[C@H]2O)c1OC` [2,3-dimethoxybenzylamino, 6-(2,3-dimethoxybenzylamino)purine riboside], the “Senescent cells (%) HCA25” value in assay [1] is 4%. The “Senescent cells (%) HCA45” value in assay [1] is 5%. Also, in assay [1], the “Senescent cells (%) HCA80” value amounted to 18%. For the same compound, the IC50 is above 167 µM in [2]; above 167 µM in assay [3]; above 167 µM in assay [4]; above 167 µM in assay [5]; above 167 µM in assay [6]; 109 µM in [7]. The “Concentration with highest activity” value in assay [8] was 10^−4 mol · l^−1; in [9] it was 10^−6 mol · l^−1; in assay [10] it was 10^−4 mol · l^−1. Besides, the “Activity (%) [10^−4 mol · l^−1 BAP = 100%]” value in [8] came to 106 ± 17%. Further, the “Activity (%) [10^−5 mol · l^−1 BAP = 100%]” value came out at 5 ± 2% in assay [9] and 21 ± 7% in [10].
As for `Nc1cc(CNc2ncnc3c2ncn3[C@@H]2O[C@H](CO)[C@@H](O)[C@H]2O)ccc1Cl` [3-amino-4-chlorobenzylamino, 6-(3-amino-4-chlorobenzylamino)purine riboside], in assay [1], the “Senescent cells (%) HCA25” value was determined as 4%, the “Senescent cells (%) HCA45” value stood at 6% and the “Senescent cells (%) HCA80” value was 22%.
Consider `OC[C@H]1O[C@@H](n2cnc3c(NCc4ccc(O)cc4)ncnc32)[C@H](O)[C@@H]1O` [4-hydroxybenzylamino, 6-(4-hydroxybenzylamino)purine riboside], for which the IC50 in assay [2] is above 167 µM; in [3], above 167 µM; in assay [4], above 167 µM; in assay [5], above 167 µM; in assay [11] it was above 167 µM; in assay [6] it was 39.7 µM. For the same compound, the IC50 in assay [7] is 9.5 µM.
On to `OC[C@H]1O[C@@H](n2cnc3c(NCc4ccccc4O)nc(Cl)nc32)[C@H](O)[C@@H]1O` [R2 = Cl, 2-hydroxybenzylamino], for which the IC50 in assay [2] was 2.5 µM; in [3], 75 µM; in assay [4], 10.5 µM; in assay [5], 35.1 µM; in assay [11], above 167 µM; in assay [6] it was 0.56 µM. Moreover, in [7], the IC50 is 0.38 µM.
With `COc1ccc(O)c(CNc2ncnc3c2ncn3[C@@H]2O[C@H](CO)[C@@H](O)[C@H]2O)c1` [2-hydroxy-5-methoxybenzylamino, 6-(2-hydroxy-5-methoxybenzylamino)purine riboside], the IC50 in assay [2] was above 167 µM; in assay [3], 15.4 µM; in [4], 21 µM; in assay [5] it was above 167 µM; in [11], 102 µM; in assay [6], 0.2 µM. Besides, the IC50 in [7] was 0.1 µM.
In the case of `OC[C@H]1O[C@@H](n2cnc3c(Nc4cccc(Cl)c4)ncnc32)[C@H](O)[C@@H]1O` [3-chloroanilino], in assay [1], the “Senescent cells (%) HCA25” value came to 4%, the “Senescent cells (%) HCA45” value was determined as 4% and the “Senescent cells (%) HCA80” value is reported as 27%.
`OC[C@H]1O[C@@H](n2cnc3c(NCc4cccc(Cl)c4O)nc(Cl)nc32)[C@H](O)[C@@H]1O` [R2 = Cl, 2-hydroxy-3-chlorobenzylamino]: the IC50 in [2] was above 167 µM; in [3], 10 µM; in assay [4], 14 µM; in assay [5], above 167 µM; in assay [11], 118 µM; in assay [6] it was 0.2 µM. Moreover, the IC50 in [7] is 0.1 µM.
With `COc1ccc(CNc2nc(Cl)nc3c2ncn3[C@@H]2O[C@H](CO)[C@@H](O)[C@H]2O)cc1` [R2 = Cl, 4-methoxyxybenzylamino], the IC50 in [2] is above 167 µM; in [3], above 167 µM; in assay [4], above 167 µM; in assay [5], above 167 µM; in [11] it was 105 µM; in assay [6], above 167 µM. The IC50 in assay [7] is above 167 µM.
For `COc1cccc(CNc2nc(Cl)nc3c2ncn3[C@@H]2O[C@H](CO)[C@@H](O)[C@H]2O)c1` [R2 = Cl, 3-methoxyxybenzylamino, 2-chloro-6-(3-methoxybenzylamino)purine riboside], the IC50 in assay [2] is above 167 µM; in assay [3], above 167 µM; in [4], above 167 µM; in [5], above 167 µM; in assay [11] it was above 167 µM; in assay [6], 6.5 µM. In addition, the IC50 in assay [7] was 4.1 µM.
For `COc1ccc(CNc2ncnc3c2ncn3[C@@H]2O[C@H](CO)[C@@H](O)[C@H]2O)cc1` [4-methoxybenzylamino, 6-(4-methoxybenzylamino)purine riboside], the IC50 in assay [2] is above 167 µM; in [3], above 167 µM; in assay [4] it was above 167 µM; in assay [5] it was above 167 µM; in assay [11], 115 µM; in assay [6], above 167 µM. Further, the IC50 in assay [7] is above 167 µM. Further, the figures for the “Concentration with highest activity” value in [8], in assay [9] and in assay [10] were 10^−4 mol · l^−1, 10^−6 mol · l^−1 and 10^−4 mol · l^−1, respectively. Further, in [8], the “Activity (%) [10^−4 mol · l^−1 BAP = 100%]” value is 110 ± 9%. The “Activity (%) [10^−5 mol · l^−1 BAP = 100%]” value in [9] is 2 ± 2%; in [10], 17 ± 8%.
`COc1ccccc1CNc1nc(N)nc2c1ncn2[C@@H]1O[C@H](CO)[C@@H](O)[C@H]1O` [R2 = NH2,2-methoxyxybenzylamino, 2-amino-6-(2-methoxybenzylamino)purine riboside]: the IC50 in [2] was 27.8 µM; in assay [3], 34.9 µM; in assay [4] it was above 167 µM; in assay [5] it was above 167 µM; in [11], above 167 µM; in assay [6], 12.8 µM. Besides, the IC50 in assay [7] is 7.8 µM.
On to `CSc1nc(NCc2cccc(F)c2)c2ncn([C@@H]3O[C@H](CO)[C@@H](O)[C@H]3O)c2n1` [R2 = SCH3,3-fluorobenzylamino], for which the IC50 in assay [2] was above 167 µM; in assay [3], 7.9 µM; in assay [4] it was 31 µM; in assay [5], above 167 µM; in assay [11] it was 28 µM; in [6] it was 8.5 µM. Also, the IC50 in assay [7] is 5.2 µM.
